From a melting point compilation (Tetko et al.; mined from patent text by program, amines drawn as free bases though some values may be those of a salt) come the findings set out here.

One may read the melting point as the temperature of the solid-liquid transition. In turn, `COc1ccc(-c2nnn(-c3ccc(C(F)(F)F)cc3F)c2Cl)c(Cl)c1` gave a melting point of 95.8 to 97.5 °C.

`Fc1c(Br)ccc2c1OC(c1ccccc1)(c1ccccc1)O2`: the melting point fell in the range of 61.5 to 63 °C.

Molecule `O=S1(=O)CCC(c2ccc(N3CCN(CC(O)(Cn4cncn4)c4ccc(Cl)cc4Cl)CC3)cc2)CN1` (centres undefined) returned a melting point of 68 to 70 °C.

As for `N#CC(C#N)CC(CC(F)(F)C(F)(F)C(F)(F)C(F)F)S(=O)(=O)C(F)(F)F` (centres undefined), the melting point was in the range of 144 to 146 °C.

The molecule `CC(C)CC(=O)c1cn(C)cc(-c2cccc(C(F)(F)F)c2)c1=O` had a melting point of 110 to 112 °C.

In turn, `CCOC(Cc1ccc(OCCn2c(=O)sc3cc(C(=O)c4ccccc4)ccc32)cc1)C(=O)OC` (centres undefined) gave a melting point of 118 to 119 °C.

Turning to `CCCCCCCCCCOc1cc(OCCCCCCc2cccc(OCc3ccccc3)c2OCc2ccccc2)cc(C(=O)OC)c1`, the melting point lay in the range of 45 to 46 °C.

In turn, `CCOC(=O)c1cn(-c2ccc([N+](=O)[O-])cn2)nc1SCc1ccccc1` registered a melting point of 164 to 166 °C.

Molecule `N#Cc1cc(Cl)ccc1Oc1cc(N2CCOCC2)c(F)cc1O` showed a melting point of 149 to 151 °C.

`COc1cc(O)c(C#N)c2cc(-c3ccc(O)cc3)oc12` registered a melting point of 286 to 288 °C.

The molecule `COC(=O)c1c(C(F)F)nc(C(F)(F)F)c(C(C#N)=C2OCCO2)c1CC(C)C` displayed a melting point of 121 to 122 °C.

In turn, `C#CCC(NC(=O)c1ccc(C)cc1)C(C)=O` (centres undefined) registered a melting point of 65 to 67 °C.

`O=C(O)/C=C/C=C(c1ccc(F)cc1)c1ccc(F)cc1` registered a melting point of 186 to 188 °C.

`O=[N+]([O-])c1cccnc1NCC(O)CO` (centres undefined) gave a melting point of 95.5 to 98 °C.

`CCOC(=O)COc1ccc(NS(C)(=O)=O)cc1C` gave a melting point of 83 to 84 °C.

For the molecule `Nc1ccc(CNC(=O)OCc2ccccc2)cc1`, the melting point was 60 to 64 °C.

`N=C(NNC(=O)c1ccccc1)C(Cl)(Cl)Cl` gave a melting point of 170 to 172 °C.

`CC(C)CCOc1ccc([N+](=O)[O-])cc1OCCC(C)C` came in with a melting point of 44 to 47 °C.

`O=S1(=O)N=C(NCCCCc2ccccc2)Nc2cc(Cl)sc21`: the melting point lay in the range of 201 to 205 °C.

`O=C(C=Cc1cncnc1)CCCCc1ccc2c(n1)NCCC2` registered a melting point of 101 to 102 °C.

As to `O=C(NCCc1cccc2ccc(O)cc12)C1CC1`, the melting point was 140 to 141 °C.

In turn, `O=C(NC(Cc1ccc(OCc2ccccc2)cc1)C(=O)O)c1cn2cc(-c3cccnc3)ccc2n1` (centres undefined) came in with a melting point of 244 °C.

As for `CCOC(=O)c1ccc(O)c(CC)c1`, the melting point lay within 73 to 74 °C.

`CN(C)c1ccc2c(c1)C(=O)CC(c1ccc(O)cc1)=N2` displayed a melting point of 321 to 323 °C.

In the case of `Cc1ccc2nc3[nH]c(=O)[nH]c3cc2c1C`, the melting point is above 300 °C.

`N=C(Nc1ccc(F)c(NC(=O)/C=C/c2ccccc2C(F)(F)F)c1)c1cccs1` yielded a melting point of 208 to 209 °C.

The molecule `COc1ccc(-c2cc(=S)n(Cc3cccnc3)nc2-c2ccc(OC)cc2)cc1` showed a melting point of 163 to 164 °C.

In turn, `CCCNC(=S)NCCc1cccc2ccc(OC)cc12` yielded a melting point of 95 to 97 °C.

With `CCCOC(=O)c1cn(CC)c2nc(N3CCNCC3)ncc2c1=O`, the melting point is 152 °C.

Molecule `COC(=O)CCCNS(=O)(=O)c1ccc2ccccc2c1` registered a melting point of 123 to 125 °C.

In turn, `CC1c2ccccc2-c2ccc(F)cc2N1S(=O)(=O)c1ccc(O)cc1` (centres undefined) returned a melting point of 162 to 165 °C.

In turn, `O=C(NCc1ccc(Cl)cc1)c1cn2c(CO)cc3cc(CN4CCOCC4)cc(c1=O)c32` displayed a melting point of 210 to 212 °C.

As for `C=C1COc2ccc(C(C)=O)cc2C(S(=O)(=O)c2ccccc2)C1` (centres undefined), the melting point was 124 to 125 °C.

In the case of `CN1CCC(c2c[nH]c3ccc(/C=C/C(N)=O)cc23)CC1`, the melting point fell in the range of 82 to 83.5 °C.

Take `CCOC(=O)C(C)n1cc(-c2ccc(Oc3ccccc3)cc2)c2c(N)ncnc21` (centres undefined): the melting point lay in the range of 139 to 140 °C.

Molecule `Cc1ccc(CNc2cccc3c2C(=O)N(C2CCC(=O)NC2=O)C3=O)o1` (centres undefined) returned a melting point of 305 to 307 °C.

The molecule `O=C1NC(=O)N(Cc2ccc(Cl)cc2)C1O` (centres undefined) showed a melting point of 149 to 150 °C.

In the case of `CO/C=C(/C(=O)OC)c1ccccc1Br`, the melting point fell in the range of 68 to 69 °C.

In the case of `COc1ccc(N2CCN(c3ccc(-n4ccn(CC(F)(F)F)c4=O)cc3)CC2)cc1`, the melting point was 224 °C.

`CCC1(C(=O)O)c2ccccc2Oc2ccccc21` displayed a melting point of 175 to 176 °C.

Turning to `COc1cc(Br)c(/C=C/c2cc(/C=C/c3ccc4cc[nH]c4c3)[nH]n2)cc1O`, the melting point lay within 137 to 142 °C.

Molecule `COc1cccc(Cn2c(C(=O)O)c(-c3ccc(OCC4CC4)cc3)c3cc(OCc4ccccc4)ccc32)c1` registered a melting point of 185 to 187 °C.

Molecule `COc1cc(C=O)ccc1NC(C)=O` had a melting point of 145 °C.

Molecule `Brc1ccc(C2CCN(C3CCC3)CC2)nc1` came in with a melting point of 122 to 124 °C.

`CCOCc1nc2c(N)nc(C)c(C)c2n1CCCCNS(C)(=O)=O` returned a melting point of 165 to 167 °C.

For `Cc1ccc(-c2ccc(OC3SCC(O)C(O)C3O)c(F)n2)cn1` (centres undefined), the melting point was in the range of 189 to 190 °C.

Molecule `CC(CC1c2ccccc2CCN1C)NCC(O)c1ccc(O)cc1` (centres undefined) came in with a melting point of 113 to 115 °C.

In the case of `Nc1c(CC(=O)N2CCC(O)CC2)cccc1Oc1ccccc1F`, the melting point lay within 160 to 161 °C.

The molecule `O=C(O)C1=Cc2cc3c(cc2OC1C(F)(F)F)OCO3` (centres undefined) yielded a melting point of 246 to 248 °C.

Take `CCOC(=O)C=Cc1c(N)nc(C)c(NC(C)=O)c1C`: the melting point lay within 204 to 205 °C.

With `Oc1noc2ccc(Oc3ccc(C(F)(F)F)cc3Cl)cc12`, the melting point lay within 167 to 170 °C.

Turning to `O=C(N[C@H](Cc1ccc(C(F)(F)F)cc1)[C@@H](O)c1ccc(F)cc1)c1ccc(F)cc1` (racemic), the melting point lay within 202 to 203 °C.

In turn, `Cc1c(C)c2c(c(C)c1NC(=O)CC(C)(C)C)C(c1ccc(Br)cc1)C(C)(C)O2` (centres undefined) showed a melting point of 201 to 202 °C.

`CNC(=O)N1N=C(c2ccc([N+](=O)[O-])cc2)c2cc(Cl)c(Cl)cc2CC1C` (centres undefined) came in with a melting point of 221 to 223 °C.

Turning to `O=c1oc(-c2snnc2C2CC2)nc2ccccc12`, the melting point fell in the range of 164 to 165 °C.

In the case of `CC1(C)CCC(C)(C)c2cc(CC#Cc3ccc(C(=O)NO)c(O)c3)ccc21`, the melting point was in the range of 119 to 120 °C.

Molecule `COC(=O)CCC(NC(=O)c1cn(C(c2ccccc2)(c2ccccc2)c2ccccc2)c(I)n1)C(=O)OC` (centres undefined) had a melting point of 86 to 88 °C.

In the case of `Cn1cc(C#N)c(=O)c2cc3cc(F)c(F)cc3nc21`, the melting point is 380 °C.

Take `C=CCS(=O)(=O)c1ccc(NN=C(C)C)cc1`: the melting point lay in the range of 105 to 108 °C.

The molecule `CSc1ccc2c3c(cccc13)C(=O)N2C(C)C` yielded a melting point of 70 to 71 °C.

`O=Cc1cc([N+](=O)[O-])ccc1-c1ccccc1` gave a melting point of 79.5 °C.

`CCOC(=O)c1nnc(NS(=O)(=O)c2ccc(NC(C)=O)cc2)s1` gave a melting point of 201 to 202 °C.

With `CCCc1c(OCCCOc2ccc(Cl)cc2)ccc2c1OC(CCC(=O)O)(CCC(=O)O)CC2=O`, the melting point lay in the range of 133 to 134 °C.

`COc1cccc(Sc2ccnc(Nc3cc(OC)c(OC)c(OCCN4CCCC4)c3)n2)c1` gave a melting point of 120 to 121 °C.

Molecule `CCCCOc1cccc(OCCBr)c1` returned a melting point of 32 to 34 °C.

`COC(=O)c1ccc2c(c1)S(=O)c1cc3c(cc1CC2)CCC3` (centres undefined) displayed a melting point of 150 to 154 °C.

The molecule `Cn1ncnc1COc1nn2c(-c3cccs3)nncc2c1-c1ccccc1` displayed a melting point of 209 °C.

The molecule `COc1cc(NC(C)CCCN2C(=O)c3ccccc3C2=O)c2ncccc2c1N(C)C` (centres undefined) yielded a melting point of 103 to 105 °C.

`CC(=O)Nc1ncc(CCc2ccc(NC(NC(=O)OC(C)(C)C)NC(=O)OC(C)(C)C)cc2)s1` displayed a melting point of 203 to 205 °C.

Molecule `CCCc1c(OCC(O)COc2ccc(CC(=O)O)cc2F)ccc(C(C)=O)c1O` (centres undefined) had a melting point of 137 to 138 °C.

The molecule `O=C(O)c1ccc(-c2ncn(-c3ccc(C(F)(F)C(F)(F)C(F)(F)F)cc3)n2)cc1` displayed a melting point of 225 °C.

`CSc1ccc(CSc2nnc(-c3ccc4[nH]ncc4c3)o2)cc1C(F)(F)F` returned a melting point of 184 to 185 °C.

`CC(C)c1ccc(NN)c(Cl)c1` gave a melting point of 64 to 66 °C.

`CCCCc1nc(CO)c(C(=O)O)n1Cc1ccc(-c2ccccc2-c2nnn[nH]2)cc1` displayed a melting point of 215 to 217 °C.

In turn, `CCC(=C(c1ccc(O)cc1)c1ccc(O)cc1)c1ccc(OCC(=O)O)c(OC)c1` gave a melting point of 253 to 254 °C.

In the case of `NCc1ccc(-c2ccc(N(Cc3ccccc3)Cc3ccccc3)cc2)cc1`, the melting point fell in the range of 122 to 125 °C.

In the case of `COCCN1CCc2sc(Nc3ncc(F)c(C)n3)nc2-c2c[nH]nc21`, the melting point is 261 to 263 °C.

Molecule `Cc1ccc(C2CCN(CCCCNC(=O)c3ccc(-c4ccc(C#N)cc4)cc3)CC2)c(O)c1` gave a melting point of 184 °C.

With `COc1ccc(C(CO)CNC(=O)C(N)=O)cc1OC1CCCC1` (centres undefined), the melting point is 176 °C.

With `CCC(CC)Nc1cc(C)nc(Sc2c(C)cc(C)cc2C)c1C`, the melting point fell in the range of 108 to 110 °C.

The molecule `CC(CC(=O)O)CC(=O)Nc1cccc(-c2ccnc3c(C(=O)c4cccs4)cnn23)c1` (centres undefined) gave a melting point of 135 to 136 °C.

In the case of `O=C(O)c1ccccc1I(=O)=O`, the melting point lay within 226 to 234 °C.

The molecule `CC(C)(C)OC(=O)NCCNC(=O)c1ccc(Br)cn1` showed a melting point of 118 °C.

Molecule `O=S(=O)(c1ccccc1)c1cncc(OC2SCC(O)C(O)C2O)c1` (centres undefined) displayed a melting point of 86 °C.

Molecule `N#Cc1ccc(-c2ccc(S(=O)(=O)N(CCO)CCO)cc2)[nH]c1=O` came in with a melting point of 226 to 228 °C.

Molecule `COc1ccnc(C(C)Sc2nc3cc(OC(F)F)c(OC)cc3[nH]2)c1` (centres undefined) came in with a melting point of 128 to 131 °C.

`COc1ccc(-c2ccco2)c2c1c(CCN(C)C)cn2C` had a melting point of 90 to 93 °C.

With `O=C1CCC2=C1C(c1cc(Br)cs1)C1=C(CCS1)N2` (centres undefined), the melting point was 254 to 255 °C.

Regarding `O=C(NCCCCOc1ccc(-n2ccnc2)cc1)c1ccc(Cl)cc1`, the melting point is 138 to 139 °C.
